Values quoted from earlier work, collected in US6379705B1, “Stable multi-unitary pharmaceutical preparations containing substituted benzimidazoles” (Laboratorio Mendifar-Produtos Farmaceuticos, S.A., priority 1999, dated 2002).

In the case of COc1ccc2[nH]c([S+]([O-])Cc3ncc(C)c(OC)c3C)nc2c1 (centres unmarked) [omeprazole], the “pH of maximum stability of solutions” value (omeprazole solutions) is given as 11 and the degradation in solution (pHs lower than 7.8) is given as “very quickly”.
